This assay addresses T1, PARP14 (Homo sapiens, UniProt Q460N5).
T1 construct: engineered to contain a HiBiT tag on both alleles of the PARP14 gene; endogenous in cells; host or cells: Jurkat cells stably expressing LgBiT (Promega), with CRISPR/Cas9 knock-in of HiBiT at the PARP14 locus
The assay can be described thus: HiBiT assay for the degradation of PARP14 (HiBiT tagged PARP14 in LgBiT expressing Jurkat cells). In kind it is cell-based. To be noted: Assay B, 37° C. for 2 or 24 hours, luminescence. As to the method: Jurkat cells stably transfected with LgBiT (Promega) were engineered to contain a HiBiT tag on both alleles of the PARP14 gene (Genbank Accession Number: NM_017554) via CRISPR/Cas9 editing. The HiBiT tag is an 11 amino acid tag created by Promega that associates with LgBiT protein to form the NanoLuc® tag on the C-terminus of PARP14. Clones were isolated and confirmed for the HiBiT tag via Sanger sequencing.
Degradation of PARP14 protein was assessed by measuring the luminescence of the HiBiT tag associating with the LgBiT protein as a proxy for the PARP14 protein. Jurkat cells were diluted to 250,000 cells per mL and then added to assay plate (Corning 3574) using a Multidrop (Thermo Fisher) to add 20 μL per well of the 384 well plate, resulting in 5,000 cells per well. 20 nL of a dose response curve diluted in DMSO of each test compound was added to the cell plate using a Mosquito (TTP Labtech) and the plate was incubated at 37° C. for 2 or 24 hours. Assay plate was brought to room temperature then 5 μL per well of Live Cell Substrate (Promega) was added to the plate. Luminescence was measured on an Envision (Perkin Elmer).
The average DMSO was calculated from 32 wells containing 0.1% DMSO only in columns 12 and 24 of the assay plate. The % of DMSO values were calculated as described below: […]
The % of DMSO values were plotted as a function of compound concentration and the following 4-parameter fit was applied to derive the DC50 values:
where top, bottom, and Hill Coefficient are allowed to float. Y is the % of DMSO and X is the compound concentration.
DC50 data for the Example compounds is provided below in Table 2 (“+” is <0.03 μM; “++” is ≥0.03 μM).
(In general: HiBiT is a short tag that completes a luciferase, so light tracks the accessible tagged protein.)

This is an account of results in patent US20240051946A1, “TARGETED PROTEIN DEGRADATION OF PARP14 FOR USE IN THERAPY” (Ribon Therapeutics, Inc., priority 2022, published 2024).

Structures can show the parent of a compound that is named as a salt. Where two headings read alike, the source gives them in different places.

T1 sequence (Q460N5 whole entry): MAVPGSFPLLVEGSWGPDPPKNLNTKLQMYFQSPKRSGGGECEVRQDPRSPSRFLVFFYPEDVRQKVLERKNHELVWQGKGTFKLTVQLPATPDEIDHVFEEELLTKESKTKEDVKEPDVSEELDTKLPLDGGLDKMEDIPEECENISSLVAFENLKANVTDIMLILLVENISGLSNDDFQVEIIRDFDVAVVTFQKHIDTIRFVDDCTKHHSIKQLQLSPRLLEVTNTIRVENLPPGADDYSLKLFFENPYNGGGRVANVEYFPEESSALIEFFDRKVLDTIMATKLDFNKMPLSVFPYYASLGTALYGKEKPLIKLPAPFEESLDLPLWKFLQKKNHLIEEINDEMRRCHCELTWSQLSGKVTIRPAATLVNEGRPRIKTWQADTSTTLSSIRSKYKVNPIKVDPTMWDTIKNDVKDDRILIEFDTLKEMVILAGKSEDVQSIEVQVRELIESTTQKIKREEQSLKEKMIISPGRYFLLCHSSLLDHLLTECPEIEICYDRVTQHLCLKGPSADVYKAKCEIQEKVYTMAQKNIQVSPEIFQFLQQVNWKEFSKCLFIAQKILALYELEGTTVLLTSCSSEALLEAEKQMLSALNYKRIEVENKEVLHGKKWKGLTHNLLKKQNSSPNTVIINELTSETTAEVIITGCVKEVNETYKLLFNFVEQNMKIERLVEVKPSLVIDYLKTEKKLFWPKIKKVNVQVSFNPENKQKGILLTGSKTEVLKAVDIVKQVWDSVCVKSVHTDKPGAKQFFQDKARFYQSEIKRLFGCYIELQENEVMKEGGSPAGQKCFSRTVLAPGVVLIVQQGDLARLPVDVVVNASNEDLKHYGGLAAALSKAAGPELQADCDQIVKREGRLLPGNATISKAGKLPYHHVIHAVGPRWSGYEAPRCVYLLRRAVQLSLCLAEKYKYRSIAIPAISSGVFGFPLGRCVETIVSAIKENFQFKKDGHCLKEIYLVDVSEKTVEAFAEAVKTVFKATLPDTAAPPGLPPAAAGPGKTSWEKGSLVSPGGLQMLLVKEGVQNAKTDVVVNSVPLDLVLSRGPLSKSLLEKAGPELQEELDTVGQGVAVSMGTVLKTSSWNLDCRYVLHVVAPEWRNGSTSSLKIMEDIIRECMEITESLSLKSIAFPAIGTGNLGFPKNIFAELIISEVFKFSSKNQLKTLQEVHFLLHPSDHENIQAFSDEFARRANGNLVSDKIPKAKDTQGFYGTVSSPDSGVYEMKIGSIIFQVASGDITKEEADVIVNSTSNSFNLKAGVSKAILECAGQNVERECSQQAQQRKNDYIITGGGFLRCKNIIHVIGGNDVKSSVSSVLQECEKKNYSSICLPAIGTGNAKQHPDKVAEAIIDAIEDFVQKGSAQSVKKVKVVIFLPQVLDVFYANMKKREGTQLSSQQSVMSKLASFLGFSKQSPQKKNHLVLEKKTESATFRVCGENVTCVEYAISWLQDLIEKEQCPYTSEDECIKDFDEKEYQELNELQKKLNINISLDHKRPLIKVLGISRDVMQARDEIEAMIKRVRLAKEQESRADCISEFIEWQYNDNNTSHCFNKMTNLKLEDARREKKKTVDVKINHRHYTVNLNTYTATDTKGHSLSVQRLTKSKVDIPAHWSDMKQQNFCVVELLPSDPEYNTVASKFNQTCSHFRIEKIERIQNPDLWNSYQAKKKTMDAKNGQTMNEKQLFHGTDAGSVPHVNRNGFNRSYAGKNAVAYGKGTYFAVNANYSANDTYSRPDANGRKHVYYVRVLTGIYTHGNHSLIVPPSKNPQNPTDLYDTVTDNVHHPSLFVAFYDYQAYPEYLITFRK

On to `O=C1CCC(Nc2ccc(N3CCC(N4CCC(CCc5nc6cc(OCC7CC7)cc(F)c6c(=O)[nH]5)CC4)CC3)c(F)c2)C(=O)N1` (centres unmarked) [Example 65, 3-((4-(4-(2-(7-(cyclopropylmethoxy)-5-fluoro-4-oxo-3,4-dihydroquinazolin-2-yl)ethyl)-[1,4′-bipiperidin]-1′-yl)-3-fluorophenyl)amino)piperidine-2,6-dione], for which the DC50 (commonly the midpoint of the concentration-degradation curve) (read-out: DC50) was < 30 nM.

Turning to `Cn1nc(N2CCC(=O)NC2=O)c2ccc(N3CCC(N4CCC(SCc5nc6cc(OCC7CC7)cc(F)c6c(=O)[nH]5)CC4)CC3)cc21` [Example 61, 1-(6-(4-(((7-(cyclopropylmethoxy)-5-fluoro-4-oxo-3,4-dihydroquinazolin-2-yl)methyl)thio)-[1,4′-bipiperidin]-1′-yl)-1-methyl-1H-indazol-3-yl)dihydropyrimidine-2,4(1H,3H)-dione], the DC50 (read-out: DC50) was < 30 nM.

Take `O=C1CCC(Nc2ccc(N3CCC(N4CC(N5CCC(SCc6nc7cc(OCC8CCOCC8)cc(F)c7c(=O)[nH]6)CC5)C4)CC3)c(F)c2)C(=O)N1` (centres unmarked) [Example 51, 3-((3-fluoro-4-(4-(3-(4-(((5-fluoro-4-oxo-7-((tetrahydro-2H-pyran-4-yl)methoxy)-3,4-dihydroquinazolin-2-yl)methyl)thio)piperidin-1-yl)azetidin-1-yl)piperidin-1-yl)phenyl)amino)piperidine-2,6-dione formate]: the DC50 (read-out: DC50) was < 30 nM.

In the case of `O=C1CCC(Nc2ccc(N3CCN(CCN4CCC(SCc5nc6cc(OCC7CC7)cc(F)c6c(=O)[nH]5)CC4)CC3)cc2)C(=O)N1` (centres unmarked) [Example 42, 3-((4-(4-(2-(4-(((7-(cyclopropylmethoxy)-5-fluoro-4-oxo-3,4-dihydroquinazolin-2-yl)methyl)thio)piperidin-1-yl)ethyl)piperazin-1-yl)phenyl)amino)piperidine-2,6-dione], the DC50 was < 30 nM.

On to `O=C1CCC(Nc2ccc(N3CCC(N4CCC(OCc5nc6cc(OCC7CC7)cc(F)c6c(=O)[nH]5)CC4)CC3)c(F)c2)C(=O)N1` (centres unmarked) [Example 53, 3-((4-(4-((7-(cyclopropylmethoxy)-5-fluoro-4-oxo-3,4-dihydroquinazolin-2-yl)methoxy)-[1,4′-bipiperidin]-1′-yl)-3-fluorophenyl)amino)piperidine-2,6-dione], for which the DC50 (read-out: DC50) was < 30 nM.
